The structures appear in SMILES notation. Counter-ions that a name gives are not always drawn.

Assay [1] deals with IgG1 monoclonal antibody. Briefly: Antioxidant screening: incubation of Media 1/Media 2 mixture spiked with antibody, color intensity of purified antibody. The settings on record: 1X test concentration (hypotaurine 9.16 mM, taurine 5.00 mM), 5 days 37° C.; normalized to positive control. As to the method: For antioxidant screening, a total volume of 40 ml media was prepared by mixing 1 part basal Media 1 and 0.3 part feed Media 2 to mirror a representative ratio of media used in cell culture conditions (Table 5). […] The samples were incubated at 37° C. with shaking at 250 rpm for a five day incubation period.
After incubation, the monoclonal antibody was purified using affinity chromatography. Color intensity of the concentrated antibody composition was measured in the purified pool using an assay wherein higher numerical values indicate higher color intensity and lower numerical values indicate lower color intensity. The numerical results were normalized to the positive control, where the value for the positive control was set at 0% change in color intensity.

Assay [2] concerns monoclonal antibody. Briefly: Screen of taurine, carnosine and aminoguanidine in culture media, relative color intensity of antibody. The conditions noted are these: 27.2 g/L aminoguanidine hydrochloride, 7 days 37° C. 250 rpm (FIG. 10). The method, then: In order to identify a compound that reduces in antibody compositions and works under cell culture conditions, a screen assay in cell free medium was conducted. Taurine, carnosine and aminoguanidine were chosen for screening. These compounds were dissolved in 25 mL culture media at the concentration of 1.2 g/L (taurine), 13.6 g/L (carnosine), and 27.2 g/L (aminoguanidine hydrochloride). After pH adjustment to a range from 6.8 to 7.2 and sterile filtration with Steriflip filter units (Millipore, Billerica, MA) the solution was incubated in 50 mL Falcon tubes (BD Biosciences, San Jose, CA) equipped with TubeSpin caps (TPP Techno Plastic Products AG, Trasadingen, Switzerland). CHO cells were incubated for 7 days in a moisture controlled cell culture incubator at 37° C. and 250 rpm with no protection from light to produce the monoclonal antibody.
The monoclonal antibody in the harvested cell culture fluid (HCCF) and the incubation broth was further purified with affinity chromatography. Color intensity of the concentrated antibody composition was measured in the purified pool using an assay wherein higher numerical values indicated higher color intensity and lower numerical values indicated lower color intensity.
The relative color intensity for antibodies produced in culture medium containing taurine, carnosine, or aminoguanidine are shown in FIG. 10.

Assay [3] concerns antibody producing CHO cells. Kind of assay: 2-liter stirred bioreactor fed-batch cell culture in Media 1/Media 2 with hypotaurine or carboxymethylcysteine. The settings on record: for Growth as measured by VCC: 12.95 mM hypotaurine or 10 mM carboxymethylcysteine in Media 1 (FIG. 7A); for cell viability: 12.95 mM hypotaurine or 10 mM carboxymethylcysteine in Media 1 (FIG. 7B); for antibody titer (HPLC): 12.95 mM hypotaurine or 10 mM carboxymethylcysteine in Media 1 (FIG. 8). The format is cell-based, Chinese Hamster. The method, then: Antibody producing CHO cells were inoculated at approximately 1.0×10^6 cells/mL in 2-liter stirred bioreactors (Applikon, Foster City, CA) containing 1 L of basal Media 1 supplemented with 12.95 mM hypotaurine or 10 mM carboxymethylcysteine (CAS number 638-23-3). Cells were cultured in fed-batch mode with addition of 100 mL of feed Media 2 per liter of cell culture fluid at days 3, 6 and 9 for initiation of the production phase. A positive control was included by culturing cells in Media 1 and 2 without hypotaurine supplementation. The concentration of glucose was analyzed every day and if the glucose concentration fell below 2 g/L, it was replenished from a […] stock solution of glucose for prevention of glucose depletion. Reactors were equipped with calibrated dissolved oxygen, pH and temperature probes. Dissolved oxygen was controlled on-line through sparging with air and/or oxygen. pH was controlled through addition of CO2 or Na2CO3 and antifoam was added to the cultures as needed. The cell cultures were maintained at pH 7.0 and a temperature of 37° C. from days 0 through 3, and then at 35° C. after day 3. The cell cultures were agitated at 275 rpm and the dissolved oxygen level was at 30% of air saturation. Osmolality was monitored using an osmometer from Advanced Instruments (Norwood, MA). Offline pH and metabolite concentrations were also determined daily using a Nova Bioprofile 400 (Nova Biomedical, Waltham, MA). VCC and cell viability was measured daily using a ViCell® automated cell counter (Beckman Coulter, Fullerton, CA). The cell culture fluid was collected daily by centrifuging 1 mL of cell culture fluid for determination of antibody titer using high performance liquid chromatography. At the end of the cell culture duration on day 14, when the amount of protein in the culture was approximately 2-10 g/L, the cell culture fluid from all samples was harvested by centrifugation. The monoclonal antibody in the harvested cell culture fluid was purified using protein A affinity chromatography. The protein A pool was concentrated to 150 g/L using Amicon Centricon centrifugal filter devices (Millipore Corporation, Billerica, MA). Color intensity of the concentrated antibody composition was measured in the concentrated protein A pool using two different assays wherein higher numerical values indicated higher color intensity and lower numerical values indicated lower color intensity. […] This color intensity reduction was confirmed by using a second color assay which detected an approximate 17% and 13% color intensity reduction in antibody compositions isolated from cell cultured in media supplemented with hypotaurine and carboxymethylcysteine, respectively (FIG. 9B).

Setting [4] is: listed as carboxy methyl cysteine.

As to `NCCS(=O)(=O)O` [Taurine, 2-aminoethane-1-sulfonic acid], the “reduction of color intensity of the antibody-containing compositions” value in assay [1] was “approximately 5%”.

As for `N=C(N)NN` [aminoguanidine, aminoguanidine hydrochloride], the decrease of color entry in assay [2] is “about 71%”.

As to `N[C@@H](CSCC(=O)O)C(=O)O` [carboxymethylcysteine, (2R)-2-amino-3-[(carboxymethyl)sulfanyl]propanoic acid], in assay [3], the “Growth as measured by VCC” value is listed as “comparable among all cell cultures tested”, the cell viability result is recorded as “comparable among all cell cultures tested” and the “antibody titer (HPLC)” value is recorded as “comparable levels of antibody titers”. In addition, in assay [3] (setting [4]), the “Growth as measured by VCC” value is “did not compromise”, the cell viability entry is “did not compromise” and the “antibody titer (HPLC)” value is “did not significantly reduce”. In addition, the “color intensity reduction of antibody compositions, second color assay” value in assay [3] (12.95 mM hypotaurine or 10 mM carboxymethylcysteine, protein A pool concentrated to 150 g/L (FIG. 9B)) is reported as ~13%.
